Laboratory results reported in the NIST ThermoML archive (doi:10.1016/j.tca.2018.03.014).
± gives the expanded uncertainty stated by the source.

Columns and labels:
[1] = Molar enthalpy of transition or fusion; conditions: Crystal 2; DSC
[2] = Crystal; DTA

CCCCCCCCCCCCCCCCCCO [1-octadecanol]
Molar enthalpy of transition or fusion [1]: 16 ± 0.335 kcal/mol | Normal melting temperature [2]: 58.10 ± 4 °C
